From ChEMBL document CHEMBL6103582, “Computer-aided discovery of novel AMPK activators through virtual screening and SAR-driven synthesis” (Eur J Med Chem, 2025)
Active and inactive are the calls of the source. No cut-off for these calls is given here.

Key:
[1] = system: N2a-APPswe; experiment: Activation of AMPK in mouse N2a-APPswe cells assessed as increase in phosphorylation by measuring pACC/ACC ratio at 10 uM measured after 24 hrs by Western blot analysis; type: cell-based; settings: filed as activator
[2] = system: N2a-APPswe; experiment: Activation of AMPK in mouse N2a APPswe cells assessed as increase in phosphorylation by measuring pAMPK/AMPK ratio at 10 uM measured after 24 hrs by Western blot analysis; type: cell-based; settings: filed as activator
[3] = system: AMPK; experiment: Activation of AMPK gamma (unknown origin) assessed as increase in phosphorylation of SAMS peptide by measuring fold change at 10 uM measured after 30 mins by ADP-Glo assay; settings: Homo sapiens, filed as activator
[4] = system: N2a-APPswe; experiment: Activation of AMPK in mouse N2a-APPswe cells assessed as increase in phosphorylated AMPK at Thr172 at 10 uM measured after 3 hrs by Western blot analysis; type: cell-based; settings: filed as activator
[5] = system: N2a-APPswe; experiment: Activation of AMPK in mouse N2a-APPswe cells assessed as increase in phosphorylated ACC at Ser79 at 10 uM measured after 3 hrs by Western blot analysis; type: cell-based; settings: filed as activator
[6] = system: N2a-APPswe; experiment: Activation of AMPK in mouse N2a-APPswe cells assessed as increase in phosphorylated Raptor at Ser792 at 10 uM measured after 3 hrs by Western blot analysis; type: cell-based; settings: filed as activator
[7] = system: N2a-APPswe; experiment: Activation of AMPK in mouse N2a-APPswe cells assessed as increase in phosphorylation by measuring pAMPK/AMPK ratio at 5 uM measured after 24 hrs by Western blot analysis; type: cell-based; settings: filed as activator
[8] = Cytotoxicity against mouse N2a-APPswe cells assessed as cell viability at 5 uM measured after 24 hrs by WST-1 assay; type: toxicity, cell-based

Row | Structure (SMILES) | fold change (FC) [1] | fold change (FC) [2] | fold change (FC) [3] | further results
1 | NC(=O)c1ncn([C@@H]2O[C@H](CO)[C@@H](O)[C@H]2O)c1N | > 1 | > 1 | – | –
2 | COc1ccc(OC)c(/C=C/C(=O)c2ccc(NS(=O)(=O)c3ccc(Cl)cc3)cc2)c1 | – | – | 2.45 | Activity [4]: Active; Activity [5]: Active; Activity [6]: Active; fold change (FC) [7]: > 1; Activity [8]: Non-toxic
3 | COc1ccc(OC)c(/C=C/C(=O)c2cccc(N(S(=O)(=O)c3ccc(Cl)cc3)S(=O)(=O)c3ccc(Cl)cc3)c2)c1 | – | – | 2.53 | fold change (FC) [7]: > 1; Activity [8]: Non-toxic
4 | COc1ccc(OC)c(/C=C/C(=O)c2cccc(NS(=O)(=O)c3ccc(Cl)cc3)c2)c1 | – | – | 1.94 | –
5 | O=C(/C=C/c1ccc(N2CCCCC2)cc1)c1ccc(O)cc1O | – | – | 2.48 | fold change (FC) [7]: > 1; Activity [8]: Non-toxic
6 | COc1ccc(/C=C/C(=O)c2ccc(N)cc2)c(OC)c1 | – | – | – | Activity [8]: Non-toxic
7 | CCOC(=O)N1CCN(C(=O)c2ccc(N3CCC(NCCn4nc(C)cc4C)CC3)cc2)CC1 | > 1 | > 1 | – | –
8 | Cc1ccc(C)c(Oc2coc3cc(OCc4ccc(F)cc4)ccc3c2=O)c1 | – | > 1 | – | –
9 | CCOC(=O)c1nn(CCCc2ccccc2)c2c1CN(C(=O)Cn1nc3ccccc3n1)CC2 | > 1 | > 1 | – | –
10 | O=C(O)C1CCCN(C(=O)Cn2nc(-c3ccc4ccccc4c3)ccc2=O)C1 (centres undefined) | > 1 | > 1 | – | –
11 | COc1ccc(/C=C/C(=O)c2cccc(N)c2)cc1 | – | – | 2.3 | fold change (FC) [7]: > 1; Activity [8]: Non-toxic
12 | Cc1cc(C)c(C)c(Oc2coc3cc(OC(=O)C(C)N4C(=O)c5ccccc5C4=O)ccc3c2=O)c1 (centres undefined) | – | > 1 | – | –
13 | CN1[C@@H](c2ccccc2)[C@@H](C(=O)NCCn2ccnc2)C[C@@]1(C)C(=O)O | > 1 | > 1 | – | –
14 | COc1ccc(OC)c(C(=O)c2ccc(C(=O)N3CCc4c(cnc(C)c4CNC(C)=O)C3)cc2)c1 | > 1 | > 1 | – | –
15 | Cn1ccnc1CNC(=O)CCc1nnc(-c2ccc(-c3ccccc3)cc2)o1 | > 1 | > 1 | – | –
16 | N#CC1C(=O)Nc2scc(-c3ccc(-c4ccccc4O)cc3)c2C1=O (centres undefined) | > 1 | > 1 | – | fold change (FC) [7]: > 1
17 | Nc1ccc(C(=O)/C=C/c2ccc(N3CCCCC3)cc2)cc1 | – | – | 2.16 | fold change (FC) [7]: > 1; Activity [8]: Non-toxic
18 | O=C(CCn1cnnn1)N1CCCC(N2CCN(c3cccc(C(F)(F)F)c3)CC2)C1 (centres undefined) | > 1 | > 1 | – | –
19 | Cc1ccc(CCC(=O)Nc2ccc3c(c2)CN(C(=O)CCn2cnnn2)CC3)cc1 | > 1 | > 1 | – | –
20 | COc1cc(O)ccc1/C=C/C(=O)c1cccc(N)c1 | – | – | 1.73 | –

Row | Structure (SMILES) | fold change (FC) [1] | fold change (FC) [2] | fold change (FC) [3] | further results
21 | COCCN1C(=O)N(Cc2cccnc2)C(=O)C12CCN(Cc1nc(-c3ccccc3)cs1)CC2 | < 1 | > 1 | – | –
22 | Cc1ccc(C)c(Oc2coc3cc(OC(=O)c4cccc(Br)c4)ccc3c2=O)c1 | > 1 | > 1 | – | –
23 | Nc1cccc(C(=O)/C=C/c2ccc(N3CCCCC3)cc2)c1 | – | – | 2.05 | fold change (FC) [7]: > 1; Activity [8]: Non-toxic
24 | Cc1ccc(C)c(Oc2coc3cc(OC(=O)c4ccc(-c5ccccc5)cc4)ccc3c2=O)c1 | – | > 1 | – | –
25 | COc1ccc(OC)c(/C=C/C(=O)c2ccc(N)cc2)c1 | – | – | 1.93 | –
26 | CN1CCN(c2ccc(C(=O)/C=C/c3ccc(O)cc3)cc2)CC1 | – | – | 1.52 | –
27 | COc1ccc2c(=O)c(Oc3cc(C)ccc3C)coc2c1 | – | > 1 | – | –
28 | Cc1cc(-c2cc3c(n(Cc4cccnc4)c2=O)CCN(C(=O)c2ccc4c(c2)OCO4)C3)ccc1F | > 1 | > 1 | – | –
29 | O=C(/C=C/c1ccc(N2CCCCC2)cc1)c1ccc(O)cc1 | – | – | 2.96 | fold change (FC) [7]: > 1; Activity [8]: Non-toxic
30 | Cc1ccc(C)c(Oc2coc3cc(OCC(=O)OC4CCCCC4)ccc3c2=O)c1 | – | > 1 | – | –
31 | COc1cc(O)ccc1/C=C/C(=O)c1ccc(N2CCNCC2)cc1 | – | – | 1.51 | –
32 | COc1ccc(OC)c(/C=C/C(=O)c2cccc(N)c2)c1 | – | – | 2.62 | fold change (FC) [7]: > 1; Activity [8]: Non-toxic
33 | COc1ccc(/C=C/C(=O)c2cccc(NS(=O)(=O)c3ccc(Cl)cc3)c2)cc1 | – | – | 1.82 | –
34 | Cc1ccc(NCc2ccc(C(=O)N3CCC(C(=O)O)CC3)cc2)cc1 | > 1 | > 1 | – | –
35 | CCOCCOC(=O)COc1ccc2c(=O)c(Oc3cc(C)ccc3C)coc2c1 | – | > 1 | – | –
36 | Cc1ccc(C)c(Oc2coc3cc(OCc4ccc(Cl)cc4Cl)ccc3c2=O)c1 | – | > 1 | – | –
37 | Cc1ccccc1-c1noc(CCC(=O)NC(C)c2ccccc2-n2cccn2)n1 (centres undefined) | > 1 | > 1 | – | –
38 | Cc1ccc(C)c(Oc2coc3cc(OCCc4ccccc4)ccc3c2=O)c1 | – | > 1 | – | –
39 | Cc1ccc(C)c(Oc2coc3cc(OCC(=O)OCC(C)C)ccc3c2=O)c1 | – | > 1 | – | –
